Test results as given in ChEMBL document CHEMBL3091359, “Potent oxazolidinone antibacterials with heteroaromatic C-ring substructure” (ACS Med Chem Lett, 2013).
Values after ≈ are worked out from the molar mass of the structure shown.

Experiments:
Staphylococcus aureus [1] = assay: Antibacterial activity against linezolid-resistant Staphylococcus aureus NRS271 clinical isolate harboring G2576T mutation in peptidyl transferase center domain V of 23S rRNA gene assessed as […] by CLSI broth microdilution method; format: functional
Staphylococcus aureus [2] = assay: Antibacterial activity against methicillin-resistant Staphylococcus aureus SR3637 clinical isolate assessed as […] by CLSI broth microdilution method; format: functional
Staphylococcus aureus [3] = assay: Ratio of linezolid MIC to compound MIC for Staphylococcus aureus SR20549 clinical isolate; format: functional
Staphylococcus aureus [4] = assay: Antibacterial activity against Staphylococcus aureus Smith clinical isolate assessed as […] by CLSI broth microdilution method; format: functional
Staphylococcus aureus [5] = assay: Ratio of linezolid MIC to compound MIC for Staphylococcus aureus Smith clinical isolate; format: functional
Staphylococcus aureus [6] = assay: Antibacterial activity against Staphylococcus aureus SR20549 clinical isolate assessed as […] by CLSI broth microdilution method; format: functional
Enterococcus faecalis = assay: Antibacterial activity against Enterococcus faecalis SR1004 clinical isolate assessed as […] by CLSI broth microdilution method; format: functional
Staphylococcus aureus [7] = assay: Antibacterial activity against methicillin-resistant Staphylococcus aureus SR3637 clinical isolate infected in iv dosed JCL/ICR systemic infection model assessed as mortality administered after 1 hr of infection measured for 7 days; format: functional
Streptococcus pneumoniae [8] = assay: Antibacterial activity against penicillin-resistant Streptococcus pneumoniae SR11031 clinical isolate assessed as […] by CLSI broth microdilution method; format: functional
Haemophilus influenzae = assay: Antibacterial activity against Haemophilus influenzae SR27914 clinical isolate assessed as […] by CLSI broth microdilution method; format: functional
Enterococcus faecium = assay: Antibacterial activity against Enterococcus faecium SR7940 clinical isolate assessed as […] by CLSI broth microdilution method; format: functional
Moraxella catarrhalis = assay: Antibacterial activity against Moraxella catarrhalis SR26840 clinical isolate assessed as […] by CLSI broth microdilution method; format: functional
Streptococcus pneumoniae [9] = assay: Antibacterial activity against Streptococcus pneumoniae SR26207 clinical isolate assessed as […] by CLSI broth microdilution method; format: functional
Staphylococcus aureus [10] = assay: Antibacterial activity against methicillin-resistant Staphylococcus aureus SR3637 clinical isolate infected in po dosed JCL/ICR systemic infection model assessed as mortality administered after 1 hr of infection measured for 7 days; format: functional
Cytochrome P450 2C9 = Cytochrome P450 2C9 (Homo sapiens, UniProt P11712); assay: Inhibition of human CYP2C9 assessed as tolbutamide hydroxylation after 20 mins by LC-MS/MS analysis; format: ADME
Chain of Cytochrome P450 2C9 (P11712 whole entry): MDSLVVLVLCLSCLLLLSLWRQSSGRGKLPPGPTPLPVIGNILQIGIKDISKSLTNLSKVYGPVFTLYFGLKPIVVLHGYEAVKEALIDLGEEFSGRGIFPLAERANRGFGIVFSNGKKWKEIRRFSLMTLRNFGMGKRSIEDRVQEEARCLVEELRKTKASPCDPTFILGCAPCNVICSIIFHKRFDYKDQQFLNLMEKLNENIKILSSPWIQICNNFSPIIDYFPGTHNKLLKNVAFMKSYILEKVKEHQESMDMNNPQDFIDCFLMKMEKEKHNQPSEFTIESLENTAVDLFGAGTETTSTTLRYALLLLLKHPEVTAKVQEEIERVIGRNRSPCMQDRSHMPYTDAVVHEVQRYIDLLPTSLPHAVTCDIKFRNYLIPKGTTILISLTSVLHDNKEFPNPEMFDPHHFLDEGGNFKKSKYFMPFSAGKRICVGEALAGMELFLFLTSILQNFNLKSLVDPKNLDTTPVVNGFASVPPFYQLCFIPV

Cytochrome P450 2D6 = Cytochrome P450 2D6 (Homo sapiens, UniProt P10635); assay: Inhibition of human CYP2D6 assessed as dextromethorphan O-demethylation after 20 mins by LC-MS/MS analysis; format: ADME
Chain of Cytochrome P450 2D6 (P10635 whole entry): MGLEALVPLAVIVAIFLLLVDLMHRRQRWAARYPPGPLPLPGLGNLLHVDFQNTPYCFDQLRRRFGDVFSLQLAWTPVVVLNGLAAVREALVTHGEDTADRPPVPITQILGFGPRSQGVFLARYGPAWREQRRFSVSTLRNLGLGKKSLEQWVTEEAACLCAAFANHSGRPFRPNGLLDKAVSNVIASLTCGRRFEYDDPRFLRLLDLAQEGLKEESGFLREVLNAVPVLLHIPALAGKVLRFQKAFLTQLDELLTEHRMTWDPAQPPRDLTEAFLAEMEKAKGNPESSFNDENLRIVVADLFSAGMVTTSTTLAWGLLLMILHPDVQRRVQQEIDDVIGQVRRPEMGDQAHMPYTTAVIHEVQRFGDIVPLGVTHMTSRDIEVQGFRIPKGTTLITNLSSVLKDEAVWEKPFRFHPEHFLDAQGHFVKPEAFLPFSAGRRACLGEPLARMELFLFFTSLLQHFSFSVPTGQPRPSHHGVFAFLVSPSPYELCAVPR

Cytochrome P450 3A4 = Cytochrome P450 3A4 (Homo sapiens, UniProt P08684); assay: Inhibition of human CYP3A4 assessed as terfenadine hydroxylation after 20 mins by LC-MS/MS analysis; format: ADME
Chain of Cytochrome P450 3A4 (P08684 whole entry): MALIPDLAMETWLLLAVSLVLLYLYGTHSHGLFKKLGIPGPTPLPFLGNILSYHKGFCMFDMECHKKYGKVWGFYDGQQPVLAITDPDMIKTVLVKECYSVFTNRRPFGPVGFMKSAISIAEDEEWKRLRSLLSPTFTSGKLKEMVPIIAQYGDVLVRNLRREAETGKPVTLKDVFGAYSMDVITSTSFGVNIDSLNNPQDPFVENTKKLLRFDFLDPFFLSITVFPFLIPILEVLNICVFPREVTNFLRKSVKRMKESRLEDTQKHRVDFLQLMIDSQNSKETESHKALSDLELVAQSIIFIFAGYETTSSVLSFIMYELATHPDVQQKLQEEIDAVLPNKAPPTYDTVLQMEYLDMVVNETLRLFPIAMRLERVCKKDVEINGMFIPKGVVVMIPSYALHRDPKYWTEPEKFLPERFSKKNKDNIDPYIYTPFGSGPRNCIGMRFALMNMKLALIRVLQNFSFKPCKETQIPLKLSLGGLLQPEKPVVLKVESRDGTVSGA

MAO-B = target: T1, MAO-B (Rattus norvegicus, UniProt P19643); assay: Inhibition of rat forebrain MAO-B using [14C]PEA as substrate at 30 uM preincubated for 20 mins followed by substrate addition measured after 10 mins by liquid scintillation counting analysis; details: probe [14C]PEA
T1 sequence (P19643 whole entry): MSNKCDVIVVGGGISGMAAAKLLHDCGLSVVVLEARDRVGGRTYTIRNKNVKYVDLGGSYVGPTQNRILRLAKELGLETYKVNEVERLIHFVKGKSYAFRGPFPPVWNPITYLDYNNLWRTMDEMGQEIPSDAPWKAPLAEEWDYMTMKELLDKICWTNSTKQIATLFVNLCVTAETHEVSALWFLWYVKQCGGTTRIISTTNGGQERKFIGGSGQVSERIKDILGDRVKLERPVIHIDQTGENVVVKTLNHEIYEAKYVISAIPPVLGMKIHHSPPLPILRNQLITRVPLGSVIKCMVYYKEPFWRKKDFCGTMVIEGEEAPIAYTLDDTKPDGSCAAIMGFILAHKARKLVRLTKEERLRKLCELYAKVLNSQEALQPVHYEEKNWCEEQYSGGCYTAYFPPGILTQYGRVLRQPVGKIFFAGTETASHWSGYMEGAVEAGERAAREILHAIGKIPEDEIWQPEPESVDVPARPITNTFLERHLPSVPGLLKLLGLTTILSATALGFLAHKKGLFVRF

Cytochrome P450 1A2 = target: T2, Cytochrome P450 1A2 (Homo sapiens, UniProt P05177); assay: Inhibition of human CYP1A2 assessed as ethoxyresorufin O-deethylation after 20 mins by fluorescence plate reader; format: ADME
T2 sequence (P05177 whole entry): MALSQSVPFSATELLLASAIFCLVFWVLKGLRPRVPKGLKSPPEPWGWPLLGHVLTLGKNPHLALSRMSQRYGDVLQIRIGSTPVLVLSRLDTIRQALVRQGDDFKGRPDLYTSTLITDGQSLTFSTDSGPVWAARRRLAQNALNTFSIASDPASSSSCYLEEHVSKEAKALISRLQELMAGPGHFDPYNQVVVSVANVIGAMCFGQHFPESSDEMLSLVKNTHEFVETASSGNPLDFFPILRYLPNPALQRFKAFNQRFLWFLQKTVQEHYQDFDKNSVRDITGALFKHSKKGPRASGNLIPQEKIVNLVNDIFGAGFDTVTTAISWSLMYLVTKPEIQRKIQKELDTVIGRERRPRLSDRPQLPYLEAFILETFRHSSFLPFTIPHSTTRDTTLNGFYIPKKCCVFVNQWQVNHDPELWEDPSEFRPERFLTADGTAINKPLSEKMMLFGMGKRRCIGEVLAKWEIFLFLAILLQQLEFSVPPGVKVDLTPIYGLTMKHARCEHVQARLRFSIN

MAO-A = target: T3, MAO-A (Rattus norvegicus, UniProt P21396); assay: Inhibition of rat forebrain MAO-A using [14C]5-HT as substrate at 30 uM preincubated for 20 mins followed by substrate addition measured after 5 mins by liquid scintillation counting analysis; details: probe [14C]5-HT
T3 sequence (P21396 whole entry): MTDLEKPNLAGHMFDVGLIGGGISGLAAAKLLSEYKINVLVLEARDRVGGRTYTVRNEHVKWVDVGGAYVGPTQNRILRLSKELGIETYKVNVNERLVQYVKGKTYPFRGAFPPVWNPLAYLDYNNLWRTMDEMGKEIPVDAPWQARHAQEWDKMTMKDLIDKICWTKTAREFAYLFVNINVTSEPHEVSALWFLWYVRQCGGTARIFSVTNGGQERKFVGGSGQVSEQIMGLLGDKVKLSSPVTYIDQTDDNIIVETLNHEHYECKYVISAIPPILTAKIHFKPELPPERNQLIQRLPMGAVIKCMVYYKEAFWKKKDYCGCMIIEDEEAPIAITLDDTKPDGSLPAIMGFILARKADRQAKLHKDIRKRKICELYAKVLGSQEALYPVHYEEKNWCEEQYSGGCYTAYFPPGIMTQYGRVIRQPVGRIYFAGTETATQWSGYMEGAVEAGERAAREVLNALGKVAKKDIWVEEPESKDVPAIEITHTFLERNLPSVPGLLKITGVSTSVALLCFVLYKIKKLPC

[11] = AUC (infinity) in ICR mouse at 5.56 mg/kg, po by LC-MS/MS analysis; format: ADME, organism-based; parameters: time infinity, dose 5.56 mg/kg, route oral; details: plasma
Staphylococcus aureus [12] = assay: Potency index, ratio of linezolid ED50 to compound ED50 for methicillin-resistant Staphylococcus aureus SR3637 in po dosed JCL/ICR mouse systemic infection model; format: functional
[13] = Tmax in ICR mouse at 5.56 mg/kg, po by LC-MS/MS analysis; format: ADME, organism-based; parameters: dose 5.56 mg/kg, route oral; details: in vivo
[14] = Cmax in ICR mouse at 5.56 mg/kg, po by LC-MS/MS analysis; format: ADME, organism-based; parameters: dose 5.56 mg/kg, route oral; details: in vivo
[15] = Cmax in ICR mouse at 67.7 mg/kg, po by LC-MS/MS analysis; format: ADME, organism-based; parameters: dose 67.7 mg/kg, route oral; details: in vivo
[16] = AUC (infinity) in ICR mouse at 67.7 mg/kg, po by LC-MS/MS analysis; format: ADME, organism-based; parameters: time infinity, dose 67.7 mg/kg, route oral; details: plasma
[17] = Tmax in ICR mouse at 67.7 mg/kg, po by LC-MS/MS analysis; format: ADME, organism-based; parameters: dose 67.7 mg/kg, route oral; details: in vivo

Structure (SMILES)	MIC (Staphylococcus aureus [1]) [µg/mL]	MIC (Staphylococcus aureus [2]) [µg/mL]	Ratio (Staphylococcus aureus [3])	MIC (Staphylococcus aureus [4]) [µg/mL]	Ratio (Staphylococcus aureus [5])	MIC (Staphylococcus aureus [6]) [µg/mL]	MIC (Enterococcus faecalis) [µg/mL]	ED50 (Staphylococcus aureus [7]) [mg/kg]	MIC (Streptococcus pneumoniae [8]) [µg/mL]	MIC (Haemophilus influenzae) [µg/mL]	MIC (Enterococcus faecium) [µg/mL]	MIC (Moraxella catarrhalis) [µg/mL]	MIC (Streptococcus pneumoniae [9]) [µg/mL]	ED50 (Staphylococcus aureus [10]) [mg/kg]	IC50 (Cytochrome P450 2C9) [µM]	IC50 (Cytochrome P450 2D6) [µM]	IC50 (Cytochrome P450 3A4) [µM]	inhibition at 10 min, 30 µM (MAO-B) [%]	IC50 (Cytochrome P450 1A2) [µM]	inhibition at 5 min, 30 µM (MAO-A) [%]	further results
CC(=O)NC[C@H]1CN(c2ccc(-c3ccc4ccnn4c3)c(F)c2)C(=O)O1	2 (≈ 5.43 µM)	0.25 (≈ 0.679 µM)	8	0.5 (≈ 1.36 µM)	4	0.25 (≈ 0.679 µM)	0.5 (≈ 1.36 µM)	> 10	≤ 0.063	8 (≈ 21.7 µM)	0.25 (≈ 0.679 µM)	2 (≈ 5.43 µM)	≤ 0.063								
CC(=O)NC[C@H]1CN(c2ccc(-c3ccc4cncn4c3)c(F)c2)C(=O)O1	4 (≈ 10.9 µM)	0.5 (≈ 1.36 µM)	2	1 (≈ 2.71 µM)	2	0.25 (≈ 0.679 µM)	0.5 (≈ 1.36 µM)	3.05	≤ 0.063	8 (≈ 21.7 µM)	0.5 (≈ 1.36 µM)	4 (≈ 10.9 µM)	≤ 0.063								
CC(=O)NC[C@H]1CN(c2ccc(-c3ccc4nccn4c3)c(F)c2)C(=O)O1	8 (≈ 21.7 µM)	0.5 (≈ 1.36 µM)	4	1 (≈ 2.71 µM)	2	0.5 (≈ 1.36 µM)	0.5 (≈ 1.36 µM)	3.17	≤ 0.063	4 (≈ 10.9 µM)	0.25 (≈ 0.679 µM)	8 (≈ 21.7 µM)	≤ 0.063	3.05							
CC(=O)NC[C@H]1CN(c2ccc(-c3ccn4ccnc4c3)c(F)c2)C(=O)O1	2 (≈ 5.43 µM)	0.25 (≈ 0.679 µM)	8	0.25 (≈ 0.679 µM)	8	0.25 (≈ 0.679 µM)	0.25 (≈ 0.679 µM)	1.09	≤ 0.063	2 (≈ 5.43 µM)	0.5 (≈ 1.36 µM)	2 (≈ 5.43 µM)	≤ 0.063	1.05	> 20	> 20	> 20	52.8	> 20	54.8	
CC(=O)NC[C@H]1CN(c2ccc(-c3ccc4ncnn4c3)c(F)c2)C(=O)O1	8 (≈ 21.7 µM)	0.5 (≈ 1.35 µM)	2	0.5 (≈ 1.35 µM)	4	0.5 (≈ 1.35 µM)	0.5 (≈ 1.35 µM)		≤ 0.063	4 (≈ 10.8 µM)	0.5 (≈ 1.35 µM)	8 (≈ 21.7 µM)	≤ 0.063								
CC(=O)NC[C@H]1CN(c2ccc(-c3ccn4ncnc4c3)c(F)c2)C(=O)O1	4 (≈ 10.8 µM)	0.25 (≈ 0.677 µM)	2	0.5 (≈ 1.35 µM)	4	0.25 (≈ 0.677 µM)	0.25 (≈ 0.677 µM)	0.34	≤ 0.063	4 (≈ 10.8 µM)	0.25 (≈ 0.677 µM)	4 (≈ 10.8 µM)	≤ 0.063	0.55	> 20	> 20	> 20	78.2	> 20	55.9	AUC(0-inf) [11]: 30900 ng·h/mL; Ratio ED50 (Staphylococcus aureus [12]): 4; Tmax [13]: 60 min; Cmax [14]: 4780 ng/mL
O=C1O[C@@H](Cn2ccnn2)CN1c1ccc(-c2ccc3nccn3c2)c(F)c1	4 (≈ 10.6 µM)	0.25 (≈ 0.661 µM)		0.5 (≈ 1.32 µM)		0.25 (≈ 0.661 µM)	0.5 (≈ 1.32 µM)		≤ 0.063	4 (≈ 10.6 µM)	0.5 (≈ 1.32 µM)	4 (≈ 10.6 µM)	≤ 0.063								
O=C1O[C@@H](Cn2ccnn2)CN1c1ccc(-c2ccn3ccnc3c2)c(F)c1	2 (≈ 5.29 µM)	0.125 (≈ 0.33 µM)		0.25 (≈ 0.661 µM)		0.125 (≈ 0.33 µM)	0.25 (≈ 0.661 µM)	0.95	≤ 0.063	2 (≈ 5.29 µM)	0.25 (≈ 0.661 µM)	2 (≈ 5.29 µM)	≤ 0.063	1.02	> 20	> 20	15	26.7	> 20	41.2	
O=C1O[C@@H](Cn2ccnn2)CN1c1ccc(-c2ccc3ncnn3c2)c(F)c1	8 (≈ 21.1 µM)	0.25 (≈ 0.659 µM)		0.5 (≈ 1.32 µM)		0.25 (≈ 0.659 µM)	0.5 (≈ 1.32 µM)		≤ 0.063	4 (≈ 10.5 µM)	0.25 (≈ 0.659 µM)	8 (≈ 21.1 µM)	≤ 0.063								
O=C1O[C@@H](Cn2ccnn2)CN1c1ccc(-c2ccn3ncnc3c2)c(F)c1	2 (≈ 5.27 µM)	0.25 (≈ 0.659 µM)		0.25 (≈ 0.659 µM)		0.125 (≈ 0.33 µM)	0.25 (≈ 0.659 µM)		≤ 0.063	2 (≈ 5.27 µM)	0.25 (≈ 0.659 µM)	4 (≈ 10.5 µM)	≤ 0.063	0.95	> 20	> 20	> 20	27.9	> 20	33.2	
CC(=O)NC[C@H]1CN(c2ccc(N3CCOCC3)c(F)c2)C(=O)O1 [LINEZOLID]	32 (≈ 94.9 µM)									16 (≈ 47.4 µM)	2 (≈ 5.93 µM)	8 (≈ 23.7 µM)		1.98	> 20	> 20	> 20		> 20		Cmax [15]: 37000 ng/mL; AUC(0-inf) [16]: 162000 ng·h/mL; Tmax [17]: 30 min
